From PubChem BioAssay AID1963446 (Molecular Pharmacology Branch, DTP, NCI, 2024)
pIC50: −log10 of the molar value. Several values for one entry are separate records, joined by “and”; a condition that tells them apart may be missing. Equal entries are not always repeated.

Tested on: 993429-296-R-J1-PDC complex spheroid growth, percent test/control
Assay: Anticancer human tumor 993429-296-R-J1-PDC patient-derived uterine sarcoma cell line growth inhibition [Asc]
Details: for viability, T/C: stronger effect = lower value
Outline: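 Complex spheroids combining tumor cells with HUVEC endothelial cells and human MSCs, at 37 degrees C, 5% CO2; agents tested alone or combined, half-log dilutions from at or near clinical Cmax, or 10 microM if Cmax unknown.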
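Note: spheroids exposed to compounds for seven days.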

COc1c(OCCCN2CCOCC2)ccc2c3n(c(=NC(=O)c4cnc(N)nc4)nc12)CCN3 + CCN1C(C(=O)NC23CCC(C(=O)O)(CC2)CC3)C(c2cccc(Cl)c2F)C2(C(=O)Nc3cc(Cl)ccc32)C12CCCCC2
pIC50 (curve of first compound, second compound 0.03 µM): 7.61
pIC50 (curve of first compound, second compound 0.0949 µM): 7.58
pIC50 (curve of first compound, second compound 0.3 µM): 7.63
pIC50 (curve of first compound, second compound 0.949 µM): 7.54
pIC50 (curve of first compound, second compound 3 µM): 7.66
viability, T/C (second compound 0.03 µM, first compound 0.00316 µM): 94.7%
viability, T/C (second compound 0.03 µM, first compound 0.01 µM): 84.8%
viability, T/C (second compound 0.03 µM, first compound 0.0316 µM): 40.2%
viability, T/C (second compound 0.03 µM, first compound 0.1 µM): 6.36%
viability, T/C (second compound 0.03 µM, first compound 0.316 µM): 4.17%
viability, T/C (second compound 0.03 µM, first compound 1 µM): 1.31%
viability, T/C (second compound 0.0949 µM, first compound 0.00316 µM): 82.9%
viability, T/C (second compound 0.0949 µM, first compound 0.01 µM): 86.2%
viability, T/C (second compound 0.0949 µM, first compound 0.0316 µM): 43%
viability, T/C (second compound 0.0949 µM, first compound 0.1 µM): 7.8%
viability, T/C (second compound 0.0949 µM, first compound 0.316 µM): 3.21%
viability, T/C (second compound 0.0949 µM, first compound 1 µM): 1.48%
viability, T/C (second compound 0.3 µM, first compound 0.00316 µM): 96.6%
viability, T/C (second compound 0.3 µM, first compound 0.01 µM): 73.5%
viability, T/C (second compound 0.3 µM, first compound 0.0316 µM): 44.7%
viability, T/C (second compound 0.3 µM, first compound 0.1 µM): 8.77%
viability, T/C (second compound 0.3 µM, first compound 0.316 µM): 3.89%
viability, T/C (second compound 0.3 µM, first compound 1 µM): 1.15%
viability, T/C (second compound 0.949 µM, first compound 0.00316 µM): 78.4%
viability, T/C (second compound 0.949 µM, first compound 0.01 µM): 89.8%
viability, T/C (second compound 0.949 µM, first compound 0.0316 µM): 47.4%
viability, T/C (second compound 0.949 µM, first compound 0.1 µM): 7.2%
viability, T/C (second compound 0.949 µM, first compound 0.316 µM): 4.24%
viability, T/C (second compound 0.949 µM, first compound 1 µM): 1.63%
viability, T/C (second compound 3 µM, first compound 0.00316 µM): 81.4%
viability, T/C (second compound 3 µM, first compound 0.01 µM): 70%
viability, T/C (second compound 3 µM, first compound 0.0316 µM): 41%
viability, T/C (second compound 3 µM, first compound 0.1 µM): 7.7%
viability, T/C (second compound 3 µM, first compound 0.316 µM): 3.98%
viability, T/C (second compound 3 µM, first compound 1 µM): 1.49%

O=C(c1cc(Cc2n[nH]c(=O)c3ccccc23)ccc1F)N1CCN(C(=O)C2CC2)CC1 + CNC(C)C(=O)NC1CN(S(=O)(=O)c2cccc(S(=O)(=O)N3CCC4CCC(C(=O)NC(c5ccccc5)c5ccccc5)N4C(=O)C(NC(=O)C(C)NC)C3)c2)CCC2CCC(C(=O)NC(c3ccccc3)c3ccccc3)N2C1=O
pIC50 (curve of first compound, second compound 0.01 µM): 5.68
pIC50 (curve of first compound, second compound 0.0316 µM): 5.76
pIC50 (curve of first compound, second compound 0.1 µM): 5.95
pIC50 (curve of first compound, second compound 0.316 µM): 6.39
pIC50 (curve of first compound, second compound 1 µM): 6.04
viability, T/C (second compound 0.01 µM, first compound 0.0316 µM): 63.2%
viability, T/C (second compound 0.01 µM, first compound 0.1 µM): 73.3%
viability, T/C (second compound 0.01 µM, first compound 0.316 µM): 64.6%
viability, T/C (second compound 0.01 µM, first compound 1 µM): 64.5%
viability, T/C (second compound 0.01 µM, first compound 3.16 µM): 41.8%
viability, T/C (second compound 0.01 µM, first compound 10 µM): 17.7%
viability, T/C (second compound 0.0316 µM, first compound 0.0316 µM): 61.5%
viability, T/C (second compound 0.0316 µM, first compound 0.1 µM): 56.2%
viability, T/C (second compound 0.0316 µM, first compound 0.316 µM): 59.5%
viability, T/C (second compound 0.0316 µM, first compound 1 µM): 59.6%
viability, T/C (second compound 0.0316 µM, first compound 3.16 µM): 40%
viability, T/C (second compound 0.0316 µM, first compound 10 µM): 12.4%
viability, T/C (second compound 0.1 µM, first compound 0.0316 µM): 53.4%
viability, T/C (second compound 0.1 µM, first compound 0.1 µM): 63.5%
viability, T/C (second compound 0.1 µM, first compound 0.316 µM): 54.8%
viability, T/C (second compound 0.1 µM, first compound 1 µM): 51.4%
viability, T/C (second compound 0.1 µM, first compound 3.16 µM): 36.3%
viability, T/C (second compound 0.1 µM, first compound 10 µM): 11.6%
viability, T/C (second compound 0.316 µM, first compound 0.0316 µM): 60.2%
viability, T/C (second compound 0.316 µM, first compound 0.1 µM): 55.9%
viability, T/C (second compound 0.316 µM, first compound 0.316 µM): 43.6%
viability, T/C (second compound 0.316 µM, first compound 1 µM): 45.5%
viability, T/C (second compound 0.316 µM, first compound 3.16 µM): 39%
viability, T/C (second compound 0.316 µM, first compound 10 µM): 14.1%
viability, T/C (second compound 1 µM, first compound 0.0316 µM): 53.2%
viability, T/C (second compound 1 µM, first compound 0.1 µM): 48%
viability, T/C (second compound 1 µM, first compound 0.316 µM): 59.5%
viability, T/C (second compound 1 µM, first compound 1 µM): 48.7%
viability, T/C (second compound 1 µM, first compound 3.16 µM): 28.1%
viability, T/C (second compound 1 µM, first compound 10 µM): 10.7%

C#Cc1c(F)ccc2cc(O)cc(-c3ncc4c(N5CC6CCC(C5)N6)nc(OCC56CCCN5CC(F)C6)nc4c3F)c12 (stereo unspecified)
viability, T/C (compound 0.0316 µM): 102% and 88% and 97.9%
viability, T/C (compound 0.1 µM): 108% and 101% and 89.1%
viability, T/C (compound 0.316 µM): 86% and 86.7% and 88.8%
viability, T/C (compound 1 µM): 93.3% and 82.2% and 100%
viability, T/C (compound 3.16 µM): 91.9% and 81.4% and 106%
pIC50 (curve of compound): < 5.00 and 5.30 and 5.25
